Experimental data published in patent publication US6410560B1, “Drug for relieving pain and promoting the removal of calculi in urolithiasis” (Kissei Pharmaceutical Co., Ltd., priority 1995, dated 2002).

Test system: human ureteral smooth muscle
Assay: Relaxation of 40 mM KCl-induced contraction of isolated human ureteral smooth muscle strips
Type: cell-based
Conditions: for ureteral relaxing effect: 40 mM KCl-induced tonic contraction, 10^−6 M phentolamine present, FIG. 1
Description: Measurement of the contractile force of the ureteral smooth muscle strip (1) Preparation of smooth muscle strips Specimens of human ureter were obtained from patients undergoing nephrectomy or total cystectomy. After the specimens were carefully dissected free from the surrounding fat tissues, they were cut into spiral strips. The ureteral strips of about 20 mm in length and 5 mm in width were prepared. (2) Experimental conditions Buffer solution; Locke's-solution No.2: NaCl (154 mM), KCl (5.6 mM), CaCl2 (2.1 mM), NaHCO3 (5.6 mM) and glucose (3.6 mM) Ureteral muscle strips without any spontaneous rhythmic contractions were used. An initial resting tension of about 1.0 g was placed. The actions of drugs against the 40 mM KCl-induced tonic contraction were evaluated in the presence of 10^−6 M phentolamine. […] The evaluation of drugs; The drug-induced relaxation was expressed as a percentage of the maximal relaxing response to 10^−5 M of isoproterenol. The ureteral tension before the treatment is indicated as 100%, and the tension after treatment of 10^−5 M of isoproterenol which produces maximal ureteral relaxation is indicated as 0%. According to the methods described above, the ureteral relaxing effects of the drug were measured using the human ureteral smooth muscle strips. According to the method described above, the interaction between a β-adrenoceptor stimulant and a β-adrenoceptor blocker was evaluated in human ureteral smooth muscle strips using the following drugs.

Compound | blocking of isoproterenol-induced ureteral relaxation (40 mM KCl contraction, ICI-118,551 100 nM pre-treatment, FIG. 2) | ureteral relaxing effect | relaxation produced by isoproterenol in the presence of ICI-118,551 (40 mM KCl contraction, pre-treatment with 100 nM ICI-118,551, relative to maximal relaxation by 10^−5 M isoproterenol alone, FIG. 2)
Cc1ccc(OCC(O)C(C)NC(C)C)c2c1CCC2.Cl (racemic) [ICI-118,551, (±)-1-[(2,3-dihydro-7-methyl-1H-inden-4-yl)oxy]-3-[(1-methylethyl)amino]-2-butanol hydrochloride] | attenuated the isoproterenol-induced ureteral relaxation, but did not completely block | – | –
CC(C)(C)NCC(O)COc1cccc2[nH]c(=O)[nH]c12.Cl (racemic) [CGP-12,177A, (±)-4-[3-[(1,1-dimethylethyl)amino]-2-hydroxypropoxy]-1,3-dihydro-2H-benzimidazol-2-one hydrochloride] | – | produced apparent ureteral relaxation | –
CC(C)NCC(O)c1ccc(O)c(O)c1 (centres unmarked) [isoproterenol] | – | showed a more potent relaxing effect | about 50%
CCC(NC(C)C)C(O)c1ccc(O)c2[nH]c(=O)ccc12 (centres unmarked) [procaterol] | – | produced apparent ureteral relaxation | –
